Where a SMILES comes first, the peptide text is derived from it.
Columns and labels:
[1] = Reducing power of the compound assessed as reducing Fe3+ power at 80 uM using K3Fe(CN)6 in pH 6.6 phosphate buffer relative to control
[2] = Hemolytic activity against human erythrocytes assessed as amount of hemoglobin released from lysed cells up to 150 uM relative to control; assay type: ADME, cell-based, Erythrocyte; details: read-out: Activity
[3] = Antioxidant activity assessed as DPPH free radical scavenging activity at 80 uM after 30 mins relative to control; assay type: functional
B16 = assay: Cytotoxicity against mouse B16 cells up to 150 uM by MTT assay relative to control; assay type: cell-based
HaCaT = assay: Cytotoxicity against human HaCaT cells up to 150 uM by MTT assay relative to control; assay type: cell-based
[4] = Antioxidant activity assessed as ABTS radical scavenging activity at 80 uM after 10 mins relative to control; assay type: functional
Tyrosinase = biological target: T1, Tyrosinase (Agaricus bisporus, UniProt O42713); assay: Inhibition of mushroom tyrosinase using L-dopa as substrate assessed as reduction in dopachrome production after 20 mins by spectrophotometry
T1 sequence (O42713 whole entry): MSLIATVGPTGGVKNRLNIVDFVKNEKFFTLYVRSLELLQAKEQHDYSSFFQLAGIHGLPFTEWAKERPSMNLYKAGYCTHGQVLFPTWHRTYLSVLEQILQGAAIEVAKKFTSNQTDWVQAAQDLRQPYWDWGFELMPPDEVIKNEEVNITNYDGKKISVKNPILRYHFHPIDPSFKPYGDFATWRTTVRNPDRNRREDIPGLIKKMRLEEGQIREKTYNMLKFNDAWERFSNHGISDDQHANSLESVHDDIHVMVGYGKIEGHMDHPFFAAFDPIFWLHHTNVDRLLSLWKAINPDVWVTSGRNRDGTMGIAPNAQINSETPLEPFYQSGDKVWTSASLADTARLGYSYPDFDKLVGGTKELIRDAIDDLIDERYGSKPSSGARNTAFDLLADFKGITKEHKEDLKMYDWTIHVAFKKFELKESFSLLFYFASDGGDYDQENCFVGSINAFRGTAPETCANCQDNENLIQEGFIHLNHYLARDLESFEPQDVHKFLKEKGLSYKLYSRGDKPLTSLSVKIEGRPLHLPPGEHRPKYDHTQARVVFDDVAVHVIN

| IC50 (Tyrosinase) | Molecule | Activity [1] | hemolysis [2] | Activity [3] | Activity (B16) | Activity (HaCaT) | Activity [4] |
| --- | --- | --- | --- | --- | --- | --- | --- |
| 128 µM | CC[C@H](C)[C@H](NC(=O)[C@H](CS)NC(=O)[C@H](CCCNC(=N)N)NC(=O)[C@H](CO)NC(=O)[C@@H](N)[C@@H](C)O)C(=O)N[C@@H](Cc1ccccc1)C(=O)N[C@@H](Cc1ccc(O)cc1)C(=O)N[C@@H](CCCNC(=N)N)C(=O)N[C@@H](CCCNC(=N)N)C(=O)N[C@@H](CS)C(=O)N[C@H](C(=O)N[C@@H](CS)C(=O)N[C@@H](CO)C(=O)O)C(C)C (H-TSRCIFYRRCVCS-OH) | 0.24 | 21% | 60% | 27% | 29% | 61% |
| 166 µM | CC[C@H](C)[C@H](NC(=O)[C@H](CS)NC(=O)[C@@H](NC(=O)[C@@H](NC(=O)[C@H](CCCNC(=N)N)NC(=O)[C@H](C)NC(=O)[C@@H](NC(=O)[C@H](CC(N)=O)NC(=O)[C@@H](NC(=O)[C@H](CCCNC(=N)N)NC(=O)[C@H](Cc1ccccc1)NC(=O)[C@H](CCCNC(=N)N)NC(=O)[C@@H](NC(=O)[C@@H](N)CS)C(C)C)[C@@H](C)O)[C@@H](C)O)[C@@H](C)O)C(C)C)C(=O)N[C@@H](C)C(=O)N1CCC[C@H]1C(=O)O (H-CVRFRTNTARTVCIAP-OH) | 0.18 | 5% | 43% | 13% | 15% | 36% |
| 127 µM | CC(C)[C@H](NC(=O)[C@H](CO)NC(=O)[C@H](CCCNC(=N)N)NC(=O)[C@H](CS)NC(=O)[C@H](CO)NC(=O)[C@@H](NC(=O)[C@H](CCCNC(=N)N)NC(=O)[C@H](Cc1ccccc1)NC(=O)[C@@H](N)Cc1ccccc1)[C@@H](C)O)C(=O)N[C@@H](CS)C(=O)O (H-FFRTSCRSVC-OH) | 0.28 | 7% | 90% | 9% | 13% | 58% |
| 90 µM | CC(C)[C@H](NC(=O)[C@H](CCCNC(=N)N)NC(=O)[C@H](CS)NC(=O)[C@H](CO)NC(=O)[C@H](CCCNC(=N)N)NC(=O)[C@H](Cc1ccccc1)NC(=O)[C@@H](N)Cc1ccccc1)C(=O)N[C@@H](CS)C(=O)O (H-FFRSCRVC-OH) | 0.19 | 2% | 95% | 5% | 5% | 66% |
| 187 µM | C[C@@H](O)[C@H](NC(=O)[C@H](CO)NC(=O)[C@H](Cc1ccccc1)NC(=O)[C@@H](N)Cc1ccccc1)C(=O)N[C@@H](CO)C(=O)N[C@@H](CS)C(=O)N[C@@H](CCCNC(=N)N)C(=O)N[C@@H](CO)C(=O)NCC(=O)N[C@@H](CS)C(=O)O (H-FFSTSCRSGC-OH) | 0.21 | – | 45% | – | – | 80% |
| 220 µM | H-TRAFRCVS-OH | 0.25 | 1% | 80% | 10% | 11% | 56% |
| 147 µM | CC[C@H](C)[C@H](NC(=O)[C@H](C)NC(=O)[C@@H]1CCCN1C(=O)[C@@H](NC(=O)[C@@H](N)Cc1ccccc1)C(C)C)C(=O)N[C@@H](CC(C)C)C(=O)N[C@@H](CS)C(=O)N[C@@H](CO)C(=O)N[C@H](C(=O)N[C@@H](CC(C)C)C(=O)N[C@@H](CCCCN)C(=O)N[C@H](C(=O)N[C@@H](CS)C(=O)O)[C@@H](C)O)[C@@H](C)CC (H-FVPAILCSILKTC-OH) | 0.23 | 4% | 74% | 12% | 11% | 48% |
| 199 µM | CC(C)[C@H](N)C(=O)N[C@H](C(=O)N[C@@H](CCCCN)C(=O)N[C@@H](CS)C(=O)N[C@@H](CO)C(=O)N[C@@H](Cc1ccccc1)C(=O)N[C@@H](CCCNC(=N)N)C(=O)N1CCC[C@H]1C(=O)NCC(=O)N[C@@H](CO)C(=O)N1CCC[C@H]1C(=O)N[C@@H](C)C(=O)N1CCC[C@H]1C(=O)N[C@@H](CCCNC(=N)N)C(=O)N[C@@H](CS)C(=O)N[C@@H](CCCCN)C(=O)O)C(C)C (H-VVKCSFRPGSPAPRCK-OH) | 0.18 | 5% | 56% | 13% | 10% | 25% |
| 106 µM | CC(C)[C@H](NC(=O)[C@H](CCCNC(=N)N)NC(=O)[C@H](Cc1ccccc1)NC(=O)[C@H](CS)NC(=O)[C@H](CCCNC(=N)N)NC(=O)[C@H](CO)NC(=O)[C@@H](N)[C@@H](C)O)C(=O)N[C@@H](CS)C(=O)O (H-TSRCFRVC-OH) | 0.24 | 1% | 99% | 11% | 9% | 50% |
| 153 µM | CC[C@H](C)[C@H](NC(=O)[C@H](CS)NC(=O)[C@H](CCCNC(=N)N)NC(=O)[C@H](CO)NC(=O)[C@@H](N)[C@@H](C)O)C(=O)N[C@@H](Cc1ccccc1)C(=O)N[C@@H](Cc1ccc(O)cc1)C(=O)N[C@@H](CCCNC(=N)N)C(=O)N[C@@H](CCCNC(=N)N)C(=O)N[C@@H](CCCCN)C(=O)N[C@@H](CCCCN)C(=O)N[C@@H](CS)C(=O)N[C@@H](CO)C(=O)O (H-TSRCIFYRRKKCS-OH) | 0.21 | – | 55% | – | – | 85% |
| 78 µM | C[C@H](NC(=O)[C@H](CO)NC(=O)[C@H](CS)NC(=O)[C@H](CO)NC(=O)[C@@H](NC(=O)[C@H](CCCNC(=N)N)NC(=O)[C@@H](N)Cc1ccccc1)[C@@H](C)O)C(=O)N[C@@H](CS)C(=O)O (H-FRTSCSAC-OH) | 0.23 | 2% | 73% | 8% | 7% | 62% |
| 176 µM | CC[C@H](C)[C@H](NC(=O)[C@H](CS)NC(=O)[C@H](C)NC(=O)[C@@H](NC(=O)[C@H](CCCNC(=N)N)NC(=O)[C@H](C)NC(=O)[C@@H](NC(=O)[C@H](CC(N)=O)NC(=O)[C@@H](NC(=O)[C@H](CCSC)NC(=O)[C@H](Cc1c[nH]c2ccccc12)NC(=O)[C@H](Cc1cnc[nH]1)NC(=O)[C@@H](NC(=O)[C@@H](N)CS)C(C)C)[C@@H](C)O)[C@@H](C)O)[C@@H](C)O)C(=O)N[C@@H](C)C(=O)N1CCC[C@H]1C(=O)O (H-CVHWMTNTARTACIAP-OH) | 0.34 | – | 21% | – | – | 82% |

From ChEMBL document CHEMBL4325834, “De Novo Molecular Design of a Novel Octapeptide That Inhibits In Vivo Melanogenesis and Has Great Transdermal Ability” (J Med Chem, 2018)
